In patent US6534482B1, “Expression vectors for stimulating an immune response and methods of using the same” (priority 1998, dated 2003):
“Also recorded” adds a separate entry of the source.

Tests used:
[1] = test system: CTL response; design: species or system HLA-A2.1/K^b-H-2^bxs transgenic mice; settings: mouse; for Immunogenicity In Vivo (IFA): No. CTL-Positive Cultures: sc; for immunogenicity of the peptide administered in IFA (in words): in vivo
[2] = test system: mouse and human MHC class II haplotypes; settings: wide range of mouse and human MHC class II haplotypes; cited from earlier work
[3] = mouse, in vivo; cited from earlier work

Compound	Immunogenicity In Vivo (IFA): CTL Response (Geo. Mean ΔLU) [1]	Immunogenicity In Vivo (IFA): No. CTL-Positive Cultures [1]	immunogenicity of the peptide administered in IFA (in words) [1]	MHC binding affinity (in words) [2]	immunogenicity in H-2^b mice (in words) [3]
CC[C@H](C)[C@H](N)C(=O)N[C@@H](CC(C)C)C(=O)N[C@@H](CCCCN)C(=O)N[C@@H](CCC(=O)O)C(=O)N1CCC[C@H]1C(=O)N[C@H](C(=O)N[C@@H](Cc1c[nH]cn1)C(=O)NCC(=O)N[C@H](C(=O)O)C(C)C)C(C)C [HIV Pol 476]	15.2 (2.9) ΔLU	2/5	–	–	–
CC(C)[C@H](NC(=O)[C@@H](N)[C@@H](C)O)C(=O)N[C@@H](Cc1ccc(O)cc1)C(=O)N[C@@H](Cc1ccc(O)cc1)C(=O)NCC(=O)N[C@H](C(=O)N1CCC[C@H]1C(=O)N[C@H](C(=O)N[C@@H](Cc1c[nH]c2ccccc12)C(=O)N[C@@H](CCCCN)C(=O)O)C(C)C)C(C)C [HIV Env 49]	13.4 (3.1) ΔLU	28/33	–	–	–
CC(C)C[C@H](NC(=O)[C@H](CO)NC(=O)[C@H](CC(C)C)NC(=O)[C@@H](N)Cc1c[nH]c2ccccc12)C(=O)N[C@@H](CC(C)C)C(=O)N[C@H](C(=O)N1CCC[C@H]1C(=O)N[C@@H](Cc1ccccc1)C(=O)N[C@H](C(=O)O)C(C)C)C(C)C [HBV Env 335]	5.3 (1.6) ΔLU	4/6	immunogenic	–	–
CSCC[C@H](NC(=O)[C@@H](N)Cc1ccc(O)cc1)C(=O)N[C@@H](CC(=O)O)C(=O)N[C@@H](CC(=O)O)C(=O)N[C@H](C(=O)N[C@H](C(=O)N[C@@H](CC(C)C)C(=O)NCC(=O)N[C@@H](C)C(=O)O)C(C)C)C(C)C [HBV Pol 55 1-A]	–	0/6	weakly or nonimmunogenic; also recorded: essentially nonimmunogenic	–	–
CC(C)C[C@H](NC(=O)[C@@H](NC(=O)[C@@H](N)CO)[C@@H](C)O)C(=O)N1CCC[C@H]1C(=O)N[C@@H](CCC(=O)O)C(=O)N[C@H](C(=O)N[C@H](C(=O)N[C@H](C(=O)N[C@H](C(=O)N[C@@H](CCCNC(=N)N)C(=O)N[C@@H](CCCNC(=N)N)C(=O)O)C(C)C)C(C)C)[C@@H](C)O)[C@@H](C)O [HBV Core 141]	12.1 (2.6) ΔLU	6/6	–	–	–
AKFVAAWTLKAAA [PADRE]	–	–	–	high MHC binding affinity	highly immunogenic
CC[C@H](C)[C@H](NC(=O)CNC(=O)[C@H](C)NC(=O)[C@H](CCCCN)NC(=O)[C@H](Cc1c[nH]c2ccccc12)NC(=O)[C@H](CC(C)C)NC(=O)[C@@H](NC(=O)[C@@H](N)Cc1c[nH]cn1)[C@@H](C)O)C(=O)N[C@@H](CC(C)C)C(=O)N[C@@H](Cc1ccc(O)cc1)C(=O)N[C@@H](CCCCN)C(=O)O [HBV Pol 149]	13.1 (1.2) ΔLU	6/6	–	–	–
